According to ChEMBL document CHEMBL4011588, “Design, synthesis, and biological evaluation of novel 4-anilinoquinazoline derivatives bearing amino acid moiety as potential EGFR kinase inhibitors” (Eur J Med Chem, 2017):
Calls of active or inactive are those of the source. The calls are words filed in the database; no cut-off is given here.

Assays:
HepG2 [1] = test: Antiproliferative activity against human HepG2 cells after 72 hrs by sulforhodamine B assay; format: functional, cell-based; details: HepG2, 72 h
Aurora kinase B = Aurora kinase B (Homo sapiens, UniProt Q96GD4); test: Inhibition of Aurora B (unknown origin) measured after 40 mins by Kinase Glo luminescence assay
[2] = target: Epidermal growth factor receptor (Homo sapiens, UniProt P00533); test: Inhibition of EGFR (unknown origin) measured after 40 mins by Kinase Glo luminescence assay
[3] = target: Dual specificity mitogen-activated protein kinase kinase; MEK1/2 (Homo sapiens, UniProt P36507+Q02750); test: Inhibition of MEK (unknown origin) measured after 40 mins by Kinase Glo luminescence assay
[4] = target: Vascular endothelial growth factor receptor 2 (Homo sapiens, UniProt P35968); test: Inhibition of VEGFR2 (unknown origin) measured after 40 mins by Kinase Glo luminescence assay
[5] = target: RAF proto-oncogene serine/threonine-protein kinase (Homo sapiens, UniProt P04049); test: Inhibition of RAF (unknown origin) measured after 40 mins by Kinase Glo luminescence assay
[6] = target: Hepatocyte growth factor receptor (Homo sapiens, UniProt P08581); test: Inhibition of c-MET (unknown origin) measured after 40 mins by Kinase Glo luminescence assay
HepG2 [7] = test: Induction of apoptosis in human HepG2 cells assessed as late apoptotic cells at 10 uM after 24 to 72 hrs by Annexin V-FITC/propidium iodide staining based flow cytometric method (reference value: 4.56%); format: functional
HepG2 [8] = test: Induction of apoptosis in human HepG2 cells assessed as early apoptotic cells at 10 uM after 24 to 72 hrs by Annexin V-FITC/propidium iodide staining based flow cytometric method (reference value: 1.28%); format: functional
HepG2 [9] = test: Induction of apoptosis in human HepG2 cells assessed as nuclear chromatin condensation at 2 to 10 uM after 15 mins to 24 hrs by Hoechst 33258 staining based fluorescence microscopic method; format: functional, cell-based
HepG2 [10] = test: Induction of apoptosis in human HepG2 cells assessed as appearance of apoptotic bodies at 2 to 10 uM after 15 mins to 24 hrs by Hoechst 33258 staining based fluorescence microscopic method; format: functional, cell-based
HepG2 [11] = test: Induction of apoptosis in human HepG2 cells assessed as early apoptotic cells at 2 uM after 24 to 72 hrs by Annexin V-FITC/propidium iodide staining based flow cytometric method (reference value: 1.28%); format: functional
HepG2 [12] = test: Induction of apoptosis in human HepG2 cells assessed as late apoptotic cells at 2 uM after 24 to 72 hrs by Annexin V-FITC/propidium iodide staining based flow cytometric method (reference value: 4.56%); format: functional
HepG2 [13] = test: Induction of apoptosis in human HepG2 cells assessed as early apoptotic cells at 5 uM after 24 to 72 hrs by Annexin V-FITC/propidium iodide staining based flow cytometric method (reference value: 1.28%); format: functional
HepG2 [14] = test: Induction of apoptosis in human HepG2 cells assessed as late apoptotic cells at 5 uM after 24 to 72 hrs by Annexin V-FITC/propidium iodide staining based flow cytometric method (reference value: 4.56%); format: functional
HepG2 [15] = test: Induction of apoptosis in human HepG2 cells after 24 to 72 hrs by Annexin V-FITC/propidium iodide staining based flow cytometric method; format: functional, cell-based
HepG2 [16] = test: Induction of apoptosis in human HepG2 cells assessed as decrease in mitochondrial membrane potential after 15 mins to 24 hrs by JC1 staining based fluorescence microscopic method; format: functional, cell-based
HepG2 [17] = test: Induction of apoptosis in human HepG2 cells assessed as increase in Bax expression at 2 to 10 uM after 30 mins to 24 hrs by Western blot method; format: functional, cell-based
HepG2 [18] = test: Induction of apoptosis in human HepG2 cells assessed as decrease in Bcl-2 expression at 2 to 10 uM after 30 mins to 24 hrs by Western blot method; format: functional, cell-based
HepG2 [19] = test: Induction of apoptosis in human HepG2 cells assessed as increase in cytochrome-c expression at 10 uM after 30 mins to 24 hrs by Western blot method; format: functional, cell-based
HepG2 [20] = test: Induction of apoptosis in human HepG2 cells assessed as increase in cleaved caspase-3 level at 5 to 10 uM after 30 mins to 24 hrs by Western blot method; format: functional, cell-based

Sequence of Epidermal growth factor receptor (P00533 whole entry): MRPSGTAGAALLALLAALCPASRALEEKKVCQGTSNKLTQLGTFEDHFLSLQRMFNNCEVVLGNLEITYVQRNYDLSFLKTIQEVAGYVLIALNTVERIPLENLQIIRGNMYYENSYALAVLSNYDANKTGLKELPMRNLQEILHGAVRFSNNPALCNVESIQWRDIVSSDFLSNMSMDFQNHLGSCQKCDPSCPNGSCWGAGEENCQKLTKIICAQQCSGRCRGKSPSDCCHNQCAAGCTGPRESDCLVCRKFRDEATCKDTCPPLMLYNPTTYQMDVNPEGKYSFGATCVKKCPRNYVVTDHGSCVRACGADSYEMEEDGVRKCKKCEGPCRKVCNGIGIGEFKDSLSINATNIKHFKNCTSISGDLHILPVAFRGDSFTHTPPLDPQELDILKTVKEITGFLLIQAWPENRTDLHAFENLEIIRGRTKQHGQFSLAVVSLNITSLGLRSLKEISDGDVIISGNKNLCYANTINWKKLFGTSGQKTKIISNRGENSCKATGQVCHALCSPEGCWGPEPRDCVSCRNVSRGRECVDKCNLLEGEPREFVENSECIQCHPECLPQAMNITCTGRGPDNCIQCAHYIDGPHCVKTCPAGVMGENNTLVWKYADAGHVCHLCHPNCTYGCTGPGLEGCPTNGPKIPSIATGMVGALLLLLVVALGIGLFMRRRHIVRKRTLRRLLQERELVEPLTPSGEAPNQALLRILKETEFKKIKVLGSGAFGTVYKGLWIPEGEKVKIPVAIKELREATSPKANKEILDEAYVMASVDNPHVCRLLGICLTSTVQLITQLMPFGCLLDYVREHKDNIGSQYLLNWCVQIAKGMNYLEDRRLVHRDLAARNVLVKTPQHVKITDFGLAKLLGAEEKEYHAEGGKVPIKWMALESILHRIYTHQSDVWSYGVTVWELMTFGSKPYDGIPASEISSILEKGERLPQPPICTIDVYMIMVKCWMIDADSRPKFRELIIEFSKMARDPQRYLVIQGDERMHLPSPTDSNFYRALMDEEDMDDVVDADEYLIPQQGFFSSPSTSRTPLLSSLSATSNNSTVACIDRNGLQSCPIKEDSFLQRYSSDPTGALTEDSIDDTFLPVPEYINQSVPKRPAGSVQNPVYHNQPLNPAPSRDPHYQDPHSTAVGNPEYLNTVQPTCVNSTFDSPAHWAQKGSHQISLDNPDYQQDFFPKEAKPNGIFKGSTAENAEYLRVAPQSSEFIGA
Sequence of Aurora kinase B (Q96GD4 whole entry): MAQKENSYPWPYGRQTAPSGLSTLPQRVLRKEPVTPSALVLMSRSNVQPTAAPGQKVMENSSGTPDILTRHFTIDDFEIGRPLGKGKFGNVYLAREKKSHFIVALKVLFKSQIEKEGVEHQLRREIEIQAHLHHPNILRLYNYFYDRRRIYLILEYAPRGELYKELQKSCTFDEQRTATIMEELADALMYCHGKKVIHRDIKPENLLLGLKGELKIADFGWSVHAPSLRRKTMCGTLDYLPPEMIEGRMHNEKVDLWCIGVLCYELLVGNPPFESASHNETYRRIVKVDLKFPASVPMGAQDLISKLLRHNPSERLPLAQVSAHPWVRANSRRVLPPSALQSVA
Sequence of Hepatocyte growth factor receptor (P08581 whole entry): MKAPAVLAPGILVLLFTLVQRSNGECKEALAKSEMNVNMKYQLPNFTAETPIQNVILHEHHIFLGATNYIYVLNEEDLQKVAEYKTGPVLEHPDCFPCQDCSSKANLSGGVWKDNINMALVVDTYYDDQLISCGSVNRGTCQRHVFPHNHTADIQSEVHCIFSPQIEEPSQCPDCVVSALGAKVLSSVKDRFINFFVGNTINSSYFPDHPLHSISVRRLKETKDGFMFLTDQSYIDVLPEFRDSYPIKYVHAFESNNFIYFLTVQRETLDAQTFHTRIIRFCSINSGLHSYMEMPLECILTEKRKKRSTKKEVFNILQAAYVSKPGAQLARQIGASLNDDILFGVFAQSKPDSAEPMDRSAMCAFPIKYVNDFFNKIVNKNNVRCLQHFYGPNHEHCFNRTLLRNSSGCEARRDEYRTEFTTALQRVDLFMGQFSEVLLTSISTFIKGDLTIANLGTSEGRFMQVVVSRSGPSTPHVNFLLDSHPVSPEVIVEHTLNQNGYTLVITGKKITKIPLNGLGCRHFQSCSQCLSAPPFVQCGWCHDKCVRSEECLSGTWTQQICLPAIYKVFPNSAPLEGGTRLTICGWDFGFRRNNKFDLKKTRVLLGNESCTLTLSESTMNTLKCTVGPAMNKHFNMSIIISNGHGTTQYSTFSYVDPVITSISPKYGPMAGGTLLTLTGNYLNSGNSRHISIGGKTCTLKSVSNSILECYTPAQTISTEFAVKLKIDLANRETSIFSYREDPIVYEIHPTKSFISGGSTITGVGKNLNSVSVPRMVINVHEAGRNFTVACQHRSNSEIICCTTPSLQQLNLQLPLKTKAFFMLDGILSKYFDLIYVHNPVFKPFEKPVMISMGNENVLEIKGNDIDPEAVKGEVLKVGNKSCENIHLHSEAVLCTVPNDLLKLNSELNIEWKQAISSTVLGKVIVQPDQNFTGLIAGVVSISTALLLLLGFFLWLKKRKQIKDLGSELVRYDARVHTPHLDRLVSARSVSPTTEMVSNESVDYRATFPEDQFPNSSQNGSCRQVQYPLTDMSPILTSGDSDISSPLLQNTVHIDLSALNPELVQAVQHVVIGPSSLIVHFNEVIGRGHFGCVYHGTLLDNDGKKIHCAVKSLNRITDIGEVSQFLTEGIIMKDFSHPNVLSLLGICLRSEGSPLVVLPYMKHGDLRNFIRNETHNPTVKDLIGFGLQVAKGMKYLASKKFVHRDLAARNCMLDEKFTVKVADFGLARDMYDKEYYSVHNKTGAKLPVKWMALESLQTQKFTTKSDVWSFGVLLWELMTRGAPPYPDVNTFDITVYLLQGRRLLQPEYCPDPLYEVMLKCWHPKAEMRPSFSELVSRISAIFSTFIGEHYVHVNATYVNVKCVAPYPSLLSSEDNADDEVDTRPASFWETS
Sequence of Vascular endothelial growth factor receptor 2 (P35968 whole entry): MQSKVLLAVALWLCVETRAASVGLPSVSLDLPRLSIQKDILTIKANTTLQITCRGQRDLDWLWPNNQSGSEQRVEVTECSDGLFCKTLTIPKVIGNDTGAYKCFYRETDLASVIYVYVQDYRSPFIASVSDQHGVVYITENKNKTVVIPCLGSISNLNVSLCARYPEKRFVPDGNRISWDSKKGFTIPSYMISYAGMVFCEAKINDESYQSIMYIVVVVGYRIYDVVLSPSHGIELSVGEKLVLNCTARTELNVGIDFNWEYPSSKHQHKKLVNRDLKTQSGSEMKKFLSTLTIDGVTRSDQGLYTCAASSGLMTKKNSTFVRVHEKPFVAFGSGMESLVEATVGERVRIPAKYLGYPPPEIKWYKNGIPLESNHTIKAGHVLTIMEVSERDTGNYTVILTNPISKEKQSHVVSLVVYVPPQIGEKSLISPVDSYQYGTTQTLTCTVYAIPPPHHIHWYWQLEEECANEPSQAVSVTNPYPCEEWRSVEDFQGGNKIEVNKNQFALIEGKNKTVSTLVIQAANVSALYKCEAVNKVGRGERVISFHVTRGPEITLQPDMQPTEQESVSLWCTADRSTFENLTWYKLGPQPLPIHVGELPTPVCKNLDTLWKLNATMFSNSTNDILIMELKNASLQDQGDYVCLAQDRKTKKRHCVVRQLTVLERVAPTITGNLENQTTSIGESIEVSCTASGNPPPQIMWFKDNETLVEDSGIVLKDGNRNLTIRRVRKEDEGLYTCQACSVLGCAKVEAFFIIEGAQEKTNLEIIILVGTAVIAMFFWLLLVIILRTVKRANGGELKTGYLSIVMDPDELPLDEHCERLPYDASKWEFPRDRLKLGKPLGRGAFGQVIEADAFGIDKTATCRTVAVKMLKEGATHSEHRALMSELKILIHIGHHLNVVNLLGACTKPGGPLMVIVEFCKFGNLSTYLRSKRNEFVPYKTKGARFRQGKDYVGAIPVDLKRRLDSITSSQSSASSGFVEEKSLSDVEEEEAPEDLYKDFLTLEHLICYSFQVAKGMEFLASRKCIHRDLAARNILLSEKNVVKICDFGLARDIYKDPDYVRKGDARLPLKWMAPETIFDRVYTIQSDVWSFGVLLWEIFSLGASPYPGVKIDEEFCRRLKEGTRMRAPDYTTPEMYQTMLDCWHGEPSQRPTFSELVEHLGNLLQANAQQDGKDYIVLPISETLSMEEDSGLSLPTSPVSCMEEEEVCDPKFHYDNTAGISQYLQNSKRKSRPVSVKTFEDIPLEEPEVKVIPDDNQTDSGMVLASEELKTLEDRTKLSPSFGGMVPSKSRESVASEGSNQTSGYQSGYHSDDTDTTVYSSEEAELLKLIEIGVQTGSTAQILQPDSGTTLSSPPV
Sequence of RAF proto-oncogene serine/threonine-protein kinase (P04049 whole entry): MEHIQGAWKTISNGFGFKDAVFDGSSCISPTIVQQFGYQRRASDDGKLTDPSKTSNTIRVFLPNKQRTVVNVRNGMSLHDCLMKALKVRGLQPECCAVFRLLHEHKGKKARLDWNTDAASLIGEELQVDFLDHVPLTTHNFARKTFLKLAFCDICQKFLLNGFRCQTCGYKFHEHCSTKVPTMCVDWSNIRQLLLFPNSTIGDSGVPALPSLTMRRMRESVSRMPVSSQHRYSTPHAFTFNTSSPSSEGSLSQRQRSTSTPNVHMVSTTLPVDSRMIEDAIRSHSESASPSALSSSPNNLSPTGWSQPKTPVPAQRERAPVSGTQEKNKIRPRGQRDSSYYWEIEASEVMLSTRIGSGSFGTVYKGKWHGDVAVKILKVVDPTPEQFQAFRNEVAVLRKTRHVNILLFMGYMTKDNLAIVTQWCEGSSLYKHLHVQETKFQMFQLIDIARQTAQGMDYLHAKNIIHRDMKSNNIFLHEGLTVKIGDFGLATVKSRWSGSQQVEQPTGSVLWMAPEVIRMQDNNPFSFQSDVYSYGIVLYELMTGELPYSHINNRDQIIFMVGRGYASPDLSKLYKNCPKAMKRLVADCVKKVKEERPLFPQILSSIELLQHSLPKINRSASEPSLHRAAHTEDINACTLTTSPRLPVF

IC50 (HepG2 [1])	IC50 (Aurora kinase B)	IC50 [2]	SMILES	other results
> 50 µM	> 100 µM		CC[C@H](C)[C@@H](NC(=O)OC(C)(C)C)C(=O)Nc1ccc2ncnc(Nc3ccc(F)c(Cl)c3)c2c1	
4.3 µM	> 100 µM	1020 nM	CC(C)[C@@H](NC(=O)OC(C)(C)C)C(=O)Nc1ccc2ncnc(Nc3cccc(C(F)(F)F)c3)c2c1	IC50 [3]: > 100 µM; IC50 [4]: > 100 µM; IC50 [5]: > 100 µM; IC50 [6]: 100 to 500 µM
> 50 µM	> 100 µM		CC(C)C[C@@H](NC(=O)OC(C)(C)C)C(=O)Nc1ccc2ncnc(Nc3cccc(C(F)(F)F)c3)c2c1	
33 µM	23.7 µM	17 nM	CC(C)(C)OC(=O)NCC(=O)Nc1ccc2ncnc(Nc3ccc(F)c(Cl)c3)c2c1	
> 50 µM	> 100 µM		CC(C)[C@@H](NC(=O)OC(C)(C)C)C(=O)Nc1ccc2ncnc(Nc3ccc(F)c(Cl)c3)c2c1	
> 50 µM	> 100 µM		CC(C)[C@@H](NC(=O)OC(C)(C)C)C(=O)Nc1ccc2ncnc(Nc3cccc(Br)c3)c2c1	
> 50 µM	> 100 µM	> 100000 nM	C[C@@H](NC(=O)OC(C)(C)C)C(=O)Nc1ccc2ncnc(Nc3ccc(F)c(Cl)c3)c2c1	
> 50 µM	> 100 µM		CSCC[C@@H](NC(=O)OC(C)(C)C)C(=O)Nc1ccc2ncnc(Nc3cccc(C(F)(F)F)c3)c2c1	
8.3 µM	6.2 µM		CC(C)(C)OC(=O)NCC(=O)Nc1ccc2ncnc(Nc3cccc(Br)c3)c2c1	Activity (HepG2 [7]): 32.19%; IC50 [3]: 7.35 µM; IC50 [4]: 18.7 µM; IC50 [5]: 17.3 µM; IC50 [6]: > 100 µM; Activity (HepG2 [8]): 1.53%; Activity (HepG2 [9]): Active; Activity (HepG2 [10]): Active; Activity (HepG2 [11]): 2.08%; Activity (HepG2 [12]): 6.38%; Activity (HepG2 [13]): 1.96%; Activity (HepG2 [14]): 9.25%; Activity (HepG2 [15]): Dose-dependent effect; Activity (HepG2 [16]): Dose-dependent effect; Activity (HepG2 [17]): Active; Activity (HepG2 [18]): Active; Activity (HepG2 [19]): Active; Activity (HepG2 [20]): Active
25 µM	> 100 µM	145 nM	CC(C)C[C@@H](NC(=O)OC(C)(C)C)C(=O)Nc1ccc2ncnc(Nc3cccc(Br)c3)c2c1	
> 50 µM	> 100 µM		CC[C@H](C)[C@@H](NC(=O)OC(C)(C)C)C(=O)Nc1ccc2ncnc(Nc3cccc(C(F)(F)F)c3)c2c1	
> 50 µM	> 100 µM		Cc1cccc(C)c1Nc1ncnc2ccc(NC(=O)CNC(=O)OC(C)(C)C)cc12	
> 50 µM	51 µM		CC(C)(C)OC(=O)NCC(=O)Nc1ccc2ncnc(Nc3cccc(C(F)(F)F)c3)c2c1	
> 50 µM	> 100 µM	> 100000 nM	C[C@@H](NC(=O)OC(C)(C)C)C(=O)Nc1ccc2ncnc(Nc3cccc(Br)c3)c2c1	
> 50 µM	> 100 µM	> 100000 nM	C[C@@H](NC(=O)OC(C)(C)C)C(=O)Nc1ccc2ncnc(Nc3cccc(C(F)(F)F)c3)c2c1	
1.4 µM		110 nM	COc1cc2c(Nc3ccc(NC(=O)c4ccccc4)cc3)ncnc2cc1OCCCN1CCOCC1	Activity (HepG2 [7]): 8.86%; Activity (HepG2 [8]): 1.09%
> 50 µM	> 100 µM		CSCC[C@@H](NC(=O)OC(C)(C)C)C(=O)Nc1ccc2ncnc(Nc3cccc(Br)c3)c2c1	
13.8 µM	> 100 µM	140 nM	CC(C)C[C@@H](NC(=O)OC(C)(C)C)C(=O)Nc1ccc2ncnc(Nc3ccc(F)c(Cl)c3)c2c1	
> 50 µM	> 100 µM		CSCC[C@@H](NC(=O)OC(C)(C)C)C(=O)Nc1ccc2ncnc(Nc3ccc(F)c(Cl)c3)c2c1	
34 µM	> 100 µM	55.5 nM	CC[C@H](C)[C@@H](NC(=O)OC(C)(C)C)C(=O)Nc1ccc2ncnc(Nc3cccc(Br)c3)c2c1	
